For one assay, the target named is LYN (Homo sapiens (Human), UniProt P07948). In words: LYN kinase assay (HTRF). The format is biochemical. The note with it: [ATP]=20 μM, LYN=0.12 nM. On the procedure: Btk Kinase Assay and Other Kinases Assay Btk kinase activity was determined using a homogenous time resolved fluorescence (HTRF) methodology. Measurements were performed in a reaction volume of 15 μL using 384-well assay plates. Kinase enzyme, inhibitor, ATP and 1 μM peptide substrate were incubated in a reaction buffer compose of Hepes50 mM (pH7.0), NaN3 0.02%, BSA 0.01%, Orthocanadate 0.1 mM. After one hour, the kinase reaction was quenched by the addition of E t-labeled antibody and XL-665 in 1×Detection buffer containing 60 mM EDTA (Cisbio), and the mixture was allowed to incubate for one hour. The HTRF signal was measured on a multimode plate reader (EnVision Multilabel Reader, Perkin Elmer) with an excitation wavelength (λEx) of 330 nm and detection wavelengths (λEm) of 615 and 665 nm. Activity was determined by the ratio of the fluorescence at 665 nm to that at 615 nm. For each compound, enzyme activity as measured at various concentrations of compound, Negative control reactions were performed in the absence of inhibitor in two replicates and eight no enzyme controls were used to determine baseline fluorescence levels. IC50s were obtained according to the equation: […] For LYN assay, [ATP]=20 μM, LYN=0.12 n M. For LCK assay, [ATP]=20 μM, LCK=0.2 nM. For BLK assay, [ATP]=20 μM, BLK=0.6 n M.

The next assay relates to Ramos cells. The experiment in a line: Calcium flux assay, anti-IgM stimulated Ramos cells. It counts as cell-based. The note with it: Homo sapiens, IgM-induced calcium influx, read-out: Ramos Ca Flux. The procedure: Calcium flux fluorescence-based assays were performed in aFDSS7000EX (Hamamatsu Photonics) fluorometric imaging plate reader according to manufacturer instructions. Compounds to be assayed were dissolved in DMSO, diluted to appropriate concentrations in Ca^2+ buffer ranging from 0 to 10 μM (at a dilution factor of 0.1), added 5 μl (6 X) to each well (the final DMSO concentration was 0.1% in each well). Then 12.5 μL 2× dye loading solution (Fluo-4 NW Calcium Assay Kits, Invitrogen) was added per well of a 384-well plate. Afterwards, actively growing Ramos cells (ATCC) in RPM1640 medium supplemented with 10% FBS (Invitrogen) were washed and re-plated in assay buffer (from Fluo-4 NW Calcium Assay Kits, Invitrogen) to approximately 6.4×10^6/ml (80000 cells/12.5 μL in 384-well plates). The plates were incubated at 37° C. for 30 minutes, then at room temperature for an additional 30 minutes. The plates were now ready to be used in an experiment. Immediately after the transfer and a 10-s recording of baseline fluorescence, the compound treated cells were stimulated with a goat anti-human IgM antibody ([…]; Jackson Immuno Research) and read in a FDSS for 240 seconds. Difference between the signal and that at baseline, designated adjusted relative fluorescence unit, was calculated by using a custom Excel (Microsoft, Redmond, Wash.) template to determine IgM-induced calcium influx and its inhibition by compounds. The table below show the result.
A general note: Calcium assays in cells follow changes in intracellular calcium, usually with a dye or a luminescent sensor.

Sequence of LYN (P07948 whole entry, species assumed): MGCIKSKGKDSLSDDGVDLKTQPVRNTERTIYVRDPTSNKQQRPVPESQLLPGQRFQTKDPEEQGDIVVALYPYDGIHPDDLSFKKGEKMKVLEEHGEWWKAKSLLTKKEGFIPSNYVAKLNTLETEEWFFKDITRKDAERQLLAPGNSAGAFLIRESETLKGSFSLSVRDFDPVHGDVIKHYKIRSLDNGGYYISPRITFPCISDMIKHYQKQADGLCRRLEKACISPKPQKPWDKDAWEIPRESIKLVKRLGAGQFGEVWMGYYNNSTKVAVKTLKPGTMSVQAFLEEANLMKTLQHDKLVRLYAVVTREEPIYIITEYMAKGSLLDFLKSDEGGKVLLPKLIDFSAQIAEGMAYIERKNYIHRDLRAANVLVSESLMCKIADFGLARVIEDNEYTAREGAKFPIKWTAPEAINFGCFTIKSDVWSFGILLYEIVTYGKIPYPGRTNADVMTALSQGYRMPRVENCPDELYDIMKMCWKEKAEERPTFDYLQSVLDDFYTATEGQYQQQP

Regarding `C=CC(=O)N1CC[C@@H](n2nc(-c3ccc(Oc4ccccc4)cc3)c3cnccc32)C1` [Example 1, (R)-1-(3-(3-(4-phenoxyphenyl)-1H-pyrazolo[4,3-c]pyridin-1-yl)pyrrolidin-1-yl)prop-2-en-1-one], the results for the IC50 at LYN and in the assay on Ramos cells were at least 10000 nM and 10 to 100 nM, respectively.

(Values after patent US10793566B2, “Bruton's tyrosine kinase inhibitors” (Zibo Biopolar Changsheng Pharmaceutical Co. Ltd., priority 2016, dated 2020).)
